This is an account of results in a melting point compilation (Tetko et al.; mined from patent text by program, amines drawn as free bases though some values may be those of a salt).

SMILES strings stand for the structures.

The compound `Nc1ccc(C(=O)c2nccs2)cc1[N+](=O)[O-]` had a melting point of 179 to 181 °C.

`Cc1cc(C#N)cc(C)c1OCCCc1cncs1` gave a melting point of 71 to 73 °C. The same measure for `CC(C)c1nc(C(C)C)c(CC=Cc2ccccc2)c(-c2ccc(F)cc2)c1CO`: 72 to 73 °C; for `N#Cc1ccc(-c2cn(-c3ccc(C#N)cc3)cn2)cc1`: 258 to 263 °C. The figure for `Cc1cc(Nc2cc(-c3cnc4cc[nH]c4c3)cn3ccnc23)nn1CCO` is 127 to 130 °C; for `CCCc1c(OCCCCCCC#N)ccc(C(C)=O)c1O` it is 64 to 66 °C; for `CCOC(=O)c1cccc(NC(=O)N2CCc3cc(SC)c(C(F)(F)F)cc32)c1` it is 195 to 197 °C. For `O=CC(CC(=O)c1ccc(F)cc1)c1ccccc1` (stereo unspecified), the melting point lay within 192 to 194 °C. As to `O=C(c1ccc(OCC2CC2)c2oc3ccccc3c12)[NH+]([O-])c1ccncc1` (stereo unspecified), the melting point is 266 to 268 °C. Compound `COC(CN(C)c1nccc(Oc2ccc(NC(=O)c3cc(F)cc(N4CCOCC4)c3)c3ccccc23)n1)OC` displayed a melting point of 92 to 94 °C. The compound `CCCCc1nc(Sc2ccccc2)c(CO)[nH]1` came in with a melting point of 45 °C.

Consider `O=c1c2c([nH]n1-c1ccc(Cl)cc1F)CCCCC2`, for which the melting point lay within 197 to 201 °C. For `COc1ccc(C(C)N(C)CCCOc2ccc(S(=O)(=O)c3c(C(C)C)cn4ccccc34)cc2)cc1OC` (stereo unspecified), the melting point lay within 82 to 83 °C. `CC1(C)Cc2c(c(N3CCOCC3)nc3sc4c(NCc5cnc6ccccc6c5)ncnc4c23)CO1` yielded a melting point of 272 to 273 °C.

`O=C(Oc1cc(O)ccn1)c1ccccc1`: the melting point lay in the range of 124 to 127 °C.

`CN1C[C@@H]2c3cc(Cl)ccc3Oc3ccccc3[C@H]2C1=O` (relative stereo): the melting point amounted to 148 °C. Turning to `CN(C)C(=N[N+](=O)[O-])NCc1cnc(Cl)s1`, the melting point is 155 to 160 °C. With `COC(=O)c1oc2cc(S)ccc2c1C`, the melting point was 118 to 120 °C. The figure for `CC(C)(C)N1CC=C(c2c[nH]c(-c3ccc(F)cc3)c2-c2ccncc2)CC1` is 242 to 244 °C. On to `CC(C)(C)c1cc(C(C#N)N2CCCCC2)cc(C(C)(C)C)c1O` (stereo unspecified), for which the melting point fell in the range of 110 to 111 °C. As to `Cc1nc2n(c(=O)c1CCN1CCC(c3c[nH]c4ccccc34)CC1)CCCS2`, the melting point was found to be 227 °C. `CCCCCCC(=O)Nc1ccn(C2OC(CO)C(O)C2O)c(=O)n1` (stereo unspecified) had a melting point of 131 to 136 °C.

In turn, `CCn1nc(OCCCc2ccc(OC(C)C)cc2OCc2ccc(Cl)cc2Cl)cc1CCC(=O)O` showed a melting point of 110 to 111 °C. On to `CCOn1c(C(F)(F)F)nc2c([N+](=O)[O-])cc(C(F)(F)F)cc21`, for which the melting point lay within 94 to 96 °C. `Cc1ncc(CS)c2c1OC(c1ccccc1)OC2` (stereo unspecified) showed a melting point of 110 to 112 °C.

`CCc1cc([N+](=O)[O-])c(Cl)c([N+](=O)[O-])c1COC` had a melting point of 81 to 82 °C. The same measure for `CC(N)c1ccc2c(c1)N(C(=O)OC(C)(C)C)CCC2` (stereo unspecified): 61 to 64 °C; for `CC(C)c1ccc(C(=O)Cl)cc1S(N)(=O)=O`: 177 °C. As for `C=CCOc1cc(CNc2nc(C)nc(C)c2Cl)ccc1OCc1ccccc1`, the melting point was in the range of 94 to 96 °C. In turn, `Cc1c(C(=O)Nc2nncs2)nnn1Cc1ccc(Cl)c(Cl)c1` registered a melting point of 216 °C. Compound `O=C(c1ccc([N+](=O)[O-])cc1)N1Cc2ccc(C(=O)C(F)(F)F)n2Cc2ccccc21` came in with a melting point of 169 to 170 °C. For `CC(C)(C)OC(=O)Nc1ccc(OC2CNC2)cc1`, the melting point was 184 to 186 °C. `O=C1c2c(n3c4c(cccc24)OCC3c2ccccc2)CCC1(Cl)Cl` (stereo unspecified) returned a melting point of 104 °C. Turning to `CC(C)(C)C(NC(=O)c1ccc(F)cc1)NC(=NC#N)Nc1cccnc1` (stereo unspecified), the melting point lay within 195 to 196 °C. `N#Cc1cccc(C(=O)c2ccc(Cl)cc2)c1` gave a melting point of 142 °C. The figure for `N#CCCNC(=O)C1=CC(CF)(CF)Oc2ccc(C(F)(F)C(F)(F)F)cc21` is 144 to 145 °C.

For the compound `COc1ccc(-c2cc(COS(C)(=O)=O)c(=O)n(CC=Cc3ccc(Cl)cc3)n2)cc1F`, the melting point is 136 °C. The figure for `COc1ccc(S(=O)(=O)N(CCn2ccnc2)c2ccc(Cl)cc2Cc2c(F)cccc2F)cc1OC` is 160 °C; for `Nc1nc(Cn2c(-c3ccc(Oc4cncnc4)cc3)ccc2-c2ccccc2Cl)ccc1NCCO` it is 78 to 82 °C; for `O=c1c2ccccc2ccc2cc(Cl)ccc12` it is 160 to 161 °C. The compound `CCOC(=O)c1ccc(/C=C(\C)c2ccc3c(c2)CCC(C)(C)CS3)cc1` came in with a melting point of 96 to 97 °C. For the compound `CC(C)(C)C(=O)Oc1ccc(-c2nnn(CCCCC(=O)O)n2)cc1`, the melting point was in the range of 129 to 131 °C. For the compound `CC(C)(C)ON=C1CC(c2ccc(S(C)(=O)=O)cc2)=C1c1ccccc1`, the melting point was 150 to 152 °C. `Cc1nc(O)c(C)c(NCCc2ccncc2)n1` yielded a melting point of 250 to 252 °C.

As for `COc1ccc2c(c1)CC(C)(CN1CCN(c3ccccc3)CC1)NC2=O` (stereo unspecified), the melting point is 93 to 95 °C. Regarding `CC(Oc1cc(-n2nc3n(c2=O)CCCC3)c(Cl)cc1Cl)C(=O)O` (stereo unspecified), the melting point was in the range of 183 to 185 °C.

As for `Cc1c(N)ccc2[nH]cc(CCCO)c12`, the melting point lay within 141 to 142 °C.

As to `CC(=O)c1cc(-c2ccncc2)[nH]c1C`, the melting point was 236 to 237 °C.

In the case of `COc1cc2ncnc(N3CCN(C(=O)NCc4ccsc4)CC3)c2cc1OC`, the melting point was 178 to 179 °C. For the compound `N#CCOC(=O)c1ccc(C(c2ccccc2)(c2ccccc2)c2ccccc2)cn1`, the melting point lay in the range of 173 to 175 °C. In turn, `Cc1cc(C)c2c(n1)[nH]c(=O)c1ccccc12` showed a melting point of 276 to 278 °C.

In the case of `Fc1ccccc1-c1nc2ncccc2o1`, the melting point was in the range of 126 to 127 °C. Consider `COc1ccc(C(=O)CBr)c2c1OCCO2`, for which the melting point was found to be 67 °C. As to `OC1CCN(Cc2ccc(Br)cn2)CC1`, the melting point fell in the range of 52 to 54 °C. In turn, `CS(=O)(=O)c1ccc(-c2cnn(Cc3ccccc3C(F)(F)F)c(=O)c2-c2ccc(F)cc2)cc1` registered a melting point of 87 to 90 °C. In turn, `S=C(Nc1cccc(Cl)c1)N1CCSC1=Nc1cccc(Cl)c1` gave a melting point of 121 to 123 °C.

`O=C1c2ccccc2C(=O)N1CCCc1cn(C(c2ccccc2)(c2ccccc2)c2ccccc2)cn1` yielded a melting point of 211 to 214 °C. On to `CCCc1c[nH]nc1OCCCc1cn(-c2ccc(C(F)(F)F)cn2)nc1OCC`, for which the melting point is 121 to 122 °C. The same measure for `Cc1cc(C(O)(C(F)(F)F)C(F)(F)F)c2ccccc2c1NS(C)(=O)=O`: 174 °C; for `O=c1[nH]c2cc3c(cc2nc1-c1ccccc1)OC(F)(F)O3`: 291 to 292 °C. Regarding `CCCO/N=C(\C(=O)OC)c1csc(N)n1`, the melting point lay in the range of 115 to 116 °C. `CC(C)(CO)NC(=O)c1nn(C2CCCCO2)cc1NC(=O)c1ccccn1` (stereo unspecified) yielded a melting point of 194 to 195 °C. The same measure for `CCCOc1ccc(C=CC(=O)c2c(O)cc(OC)cc2OC)cc1`: 96.7 °C; for `CCCCOCCOc1ccc(-c2ccc(N3CCCC(C)C3)c(C=CC(=O)O)c2)cc1` (stereo unspecified): 125 to 127 °C; for `CC1(C)SC(=NO)NC1=O`: 198 to 200 °C.

Consider `COC(=O)C1=C(C=O)NC(C)=C(C(=O)OCC(C)(C)C)C1c1ccccc1C#N` (stereo unspecified), for which the melting point was 141 to 143 °C.

On to `COc1ccccc1Oc1ccccc1N`, for which the melting point is 68 to 70 °C. Take `CC1CCCC=C1c1ccc(C(=O)N2Cc3cccn3Cc3ccccc32)cc1` (stereo unspecified): the melting point was in the range of 108 to 109 °C. `Cc1ccc(N2CN(c3ccccc3)C3=NN=CC3=C2Cl)cc1` showed a melting point of 177 to 179 °C. Compound `COc1ccc(C=Cc2ccc([N+](=O)[O-])cc2)cc1C` showed a melting point of 109 to 111 °C. Compound `O=C(Nc1ccccc1)OCC1c2ccccc2Oc2ccccc21` yielded a melting point of 180 to 181 °C.

In the case of `CCCOc1cc2sc(C(=O)O)cc2cc1OCC`, the melting point was 192 to 194 °C. On to `CCc1nc2c(N)nc3c(c2n1CCOCCS(C)(=O)=O)CCCC3`, for which the melting point is 146 to 148 °C. The figure for `CN(C)C(=O)Nc1ccc(OCc2nc(Cl)ccc2Cl)cc1` is 162 °C; for `Cc1cccc(C)c1NC(=O)CN1CCNCC1CC(N)=O` (stereo unspecified) it is 172 °C; for `CNC(=Nc1cc(Cl)ccc1N1CCOCC1)NC` it is 145 to 146 °C. The same measure for `CCOC(=O)CCc1c(C)nc(SCc2ccc(OC)cc2)n1C`: 63 °C; for `O=C(O)C(=O)c1ccc(OCCOC2CCCCC2)cc1`: 96 to 98 °C.

Regarding `Oc1ccc2c(c1)C=C(n1ccnc1)CC2`, the melting point was in the range of 218 to 220 °C.

As for `CCOC(=O)C1=C(N2CC2C(N)=O)CCCC1` (stereo unspecified), the melting point lay in the range of 101 to 104 °C.

`COc1ccc(N(C)c2nc(C)nc3oc4c(c23)CCCC4)cc1`: the melting point fell in the range of 147 to 149 °C. Consider `C=C(C)C(=O)c1ccc(OC)c(Cl)c1Cl`, for which the melting point is 59 °C. For the compound `COc1ccc(NC(=O)c2ccc(F)c(F)c2)cc1NS(=O)(=O)c1cccc(N)c1`, the melting point was 205 to 209 °C. `c1ccc2c(c1)ncc1cncn12` returned a melting point of 175 to 179 °C. `CCn1cc(-c2c(-c3ccc(F)cc3)nn3ccncc23)ccc1=O`: the melting point was 165 to 166 °C. The compound `CC(C)Oc1nn(CCO)cc1C(=O)NCc1ccc(C(F)(F)F)cc1` displayed a melting point of 107 to 108 °C. `CN(C)C(=O)COC(=O)c1cc(S(N)(=O)=O)c(Cl)cc1NCc1ccco1`: the melting point fell in the range of 193 to 194 °C. `Cc1nnc2ccc(-c3cccc(NC(=O)C4CC4)c3)nn12` came in with a melting point of 255 to 258 °C. With `Cn1c2c(ccc1=O)C(NCCc1ccc(C(F)(F)F)cc1)CCC2` (stereo unspecified), the melting point fell in the range of 104 to 106 °C. `Cc1ccc(-c2c(NS(=O)(=O)c3ccc(C(C)(C)C)cc3)ncnc2OCCOc2ccc(N)cc2)cc1` had a melting point of 190 to 191 °C. `CCCc1nc2c(C#N)ncc(C)c2[nH]1` gave a melting point of 239 to 242 °C.
